Measurements as given in patent US8476197B2, “Aminopropenoates as fungicides” (priority 2009, dated 2013).
Like-named read-outs stand apart in the source and are kept apart here. Marks after values point to notes of the source that are not given here.

| Structure (SMILES) | Log P (pH 2.7) | Log P (pH 7.5) | Log P (pH 2.3) |
| --- | --- | --- | --- |
| CCOC(=O)C(C#N)=C(Nc1cccnc1O)c1cccnc1Cl [Compound 286] | 1.9^[a] |  |  |
| CCOC(=O)C(C#N)=C(Nc1ccncc1C)c1cccnc1Cl [Compound 293] | 1.45^[a] |  |  |
| C=CCOC(=O)C(C#N)=C(NCc1nccs1)c1cn(C)nc1C(F)F [Compound 306] | 2.25^[a] |  |  |
| CCOC(=O)C(C#N)=C(NC(C)c1nccs1)c1c(C(F)(F)F)nn(C)c1Cl (stereo not shown) [Compound 311] | 3.2^[a] |  |  |
| CCOC(=O)C(C#N)=C(NC(C)c1nccs1)c1cn(C)nc1C(C)(F)F (stereo not shown) [Compound 312] | 2.62^[a] |  |  |
| CCOC(=O)C(C#N)=C(NC(C)c1ccccn1)c1c(C(F)(F)F)nn(C)c1Cl (stereo not shown) [Compound 314] | 3.24^[a] |  |  |
| CCOC(=O)C(C#N)=C(NC(C)c1ccccn1)c1cn(C)nc1C(C)(F)F (stereo not shown) [Compound 315] | 2.57^[a] |  |  |
| CCOC(=O)C(C#N)=C(NC(C)c1ccccn1)c1c(C(F)F)nn(C)c1F (stereo not shown) [Compound 316] | 2.73^[a] |  |  |
| C#CCNC(=O)C(C#N)=C(NC(C)c1nccs1)c1cccnc1Cl (stereo not shown) [Compound 317] | 2.03^[a] |  |  |
| CCOC(=O)C(C#N)=C(NC(C)c1nccs1)c1ccncc1F (stereo not shown) [Compound 318] | 2.41^[a] |  |  |
| CCOC(=O)C(C#N)=C(NCc1csc(-c2ccccc2)n1)c1cccnc1Cl [Compound 319] | 3.63^[a] |  |  |
| CCOC(=O)C(C#N)=C(NC(C)Cc1ccncc1)c1cccnc1Cl (stereo not shown) [Compound 320] | 1.64^[a] |  |  |
| CCOC(=O)C(C#N)=C(NC(C)c1cnn(C)c1)c1cccnc1Cl (stereo not shown) [Compound 321] | 2.2^[a] |  |  |
| CCOC(=O)C(C#N)=C(NC(C)c1csc(Cl)n1)c1cccnc1Cl (stereo not shown) [Compound 322] | 3.3^[a] |  |  |
| CCOC(=O)C(C#N)=C(NCc1ccc2ccccc2n1)c1cccnc1Cl [Compound 323] | 3.13^[a] |  |  |
| CC(NC(=C(C#N)C(=O)NCC(F)(F)F)c1cccnc1Cl)c1nccs1 (stereo not shown) [Compound 324] | 2.44^[a] |  |  |
| CCOC(=O)C(C#N)=C(NC(C)c1ccccn1)c1cn(C)nc1C(F)F (stereo not shown) [Compound 325] | 2.39^[a] |  |  |
| CCOC(=O)C(C#N)=C(NC(C)c1nccs1)c1cn(C)nc1C(F)F (stereo not shown) [Compound 326] | 2.44^[a] |  |  |
| COCCNC(=O)C(C#N)=C(NC(C)c1nccs1)c1cccnc1Cl (stereo not shown) [Compound 327] | 1.93^[a] |  |  |
| CCNC(=O)C(C#N)=C(NC(C)c1nccs1)c1cccnc1Cl (stereo not shown) [Compound 328] | 2.07 | 2.05 |  |
| CCOC(=O)C(C#N)=C(NC(C)c1ncccn1)c1cccnc1Cl (stereo not shown) [Compound 329] | 2.13^[a] |  |  |

| Structure (SMILES) | Log P (pH 2.7) | Log P (pH 7.5) | Log P (pH 2.3) |
| --- | --- | --- | --- |
| CCOC(=O)C(C#N)=C(NC(C)c1ccncn1)c1cccnc1Cl (stereo not shown) [Compound 330] | 2.01^[a] |  |  |
| CCOC(=O)C(C#N)=C(NCC(C)c1nccs1)c1cccnc1Cl (stereo not shown) [Compound 331] | 2.57^[a] |  |  |
| COC(=O)C(C#N)=C(NC(C)c1ccc(Cl)cc1)c1cccnc1Cl (stereo not shown) [Compound 332] | 3.24^[a] |  |  |
| COC(=O)C(C#N)=C(Nc1ccccc1SC)c1cccnc1Cl [Compound 334] |  | 2.82^[c]; 2.82^[b] | 2.82^[c]; 2.82^[b] |
| COC(=O)C(C#N)=C(Nc1ccccc1OC)c1cccnc1Cl [Compound 335] |  | 2.56 | 2.58 |
| COC(=O)C(C#N)=C(NCc1ccc(Cl)cc1)c1cccnc1Cl [Compound 336] |  | 2.96 | 2.98 |
| COC(=O)C(C#N)=C(NC(C)(C)c1ccc(Cl)cc1)c1cccnc1Cl [Compound 337] | 3.33^[a] |  |  |
| COC(=O)C(C#N)=C(NCc1ccc(Cl)nc1)c1cccnc1Cl [Compound 338] |  | 2.1 | 2.11 |
| COC(=O)C(C#N)=C(Nc1cccc(SC)c1)c1cccnc1Cl [Compound 339] |  | 2.83 | 3.04 |
| CCOC(=O)C(C#N)=C(Nc1ccccc1SC)c1cccnc1Cl [Compound 341] |  | 3.17 | 3.32 |
| CCOC(=O)C(C#N)=C(NC(C)c1ccc(Cl)cc1)c1cccnc1Cl (stereo not shown) [Compound 342] |  | 3.61 |  |
| CCOC(=O)C(C#N)=C(Nc1ccccc1SC)c1ccc(C)nc1Cl [Compound 343] |  | 3.41 | 3.57 |
| CSc1ccccc1NC(=C(C#N)C(=O)OCC(F)(F)F)c1cccnc1Cl [Compound 344] |  | 3.21 | 3.55 |
| CCOC(=O)C(C#N)=C(NC(C)c1ccc(Cl)cc1)c1cccnc1Cl (stereo not shown) [Compound 345] |  | 3.63 |  |
| CCOC(=O)C(C#N)=C(Nc1ccccc1SC)c1cc(Cl)cnc1Cl [Compound 346] |  | 3.7 | 3.94 |
| CSc1ccccc1NC(=C(C#N)C(=O)OCC(C)C)c1cccnc1Cl [Compound 347] |  | 3.94 | 4.15 |
| CCOC(=O)C(C#N)=C(NC(C)c1ccc(Cl)cc1)c1cn(C)nc1C(F)F (stereo not shown) [Compound 348] | 3.6^[a] |  |  |
| CCOC(=O)C(C#N)=C(Nc1ccccc1SC)c1cn(C)nc1C(F)F [Compound 349] | 3.13^[a] |  |  |
| CCOC(=O)C(C#N)=C(Nc1ccccc1SC)c1ncc(C(F)(F)F)cc1Cl [Compound 350] | 4.26^[a] |  |  |
| CCOC(=O)C(C#N)=C(NC(C)c1ccc(Cl)cc1)c1ncc(C(F)(F)F)cc1Cl (stereo not shown) [Compound 351] | 4.56^[a] |  |  |
